Like-named read-outs stand apart in the source and are kept apart here.

The subject of assay [1] is pAKT in BT474 cells. The assay is described as follows: Cell-based pAKT HTRF assay in BT474 cells. Conditions: BT474 cells, 4 hr incubation, read-out: pAKT inhibition IC50 in BT474 cells. The method, boiled down: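 BT474 cells in DMEM/10% FBS were treated the day after seeding with a 9-point, 3-fold compound series from 3 μM (0.25% DMSO) for 4 hr. Lysates were mixed with d2 and Eu cryptate anti-pAKT antibodies and incubated 4-24 h at room temperature. HTRF was read with excitation at 320 nm and emission at 615 nm.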
On the technique in general: Time-resolved FRET reads energy transfer from a long-lived donor to a nearby acceptor.

The target of assay [2] is Cys242 in human PIK3CA (157-299) (Homo sapiens (Human), UniProt P42336). The assay is described as follows: Covalent modification assay using MALDI-TOF MS. The class given is biochemical. To be noted: 4 h reaction time point. The method, boiled down:
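Covalent adduct formation was read by linear-mode MALDI-TOF with sinapinic acid matrix, reported as modified-protein peak height divided by total protein peak heights. Reactions held PIK3CA (157-299) at 1 or 3.33 μM in HEPES/NaCl/MgCl2 buffer, pH 7.3, sampled after 15 min to 4 h at room temperature.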

Setting [3] is: 3.33 μM protein target, 1:7.5 protein to compound ratio (compounds 1-852).
Setting [4] is: Homo sapiens, BT-474, Compounds 10-999.
[5] abbreviates: 1 μM protein target, 1:5 protein to compound ratio (compounds 853-1279).

Sequence of Cys242 in human PIK3CA (157-299) (P42336 157-299): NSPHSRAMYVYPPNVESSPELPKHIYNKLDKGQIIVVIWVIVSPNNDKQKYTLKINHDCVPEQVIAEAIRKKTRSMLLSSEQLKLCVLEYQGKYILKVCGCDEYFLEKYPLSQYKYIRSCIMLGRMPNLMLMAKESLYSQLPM

What is called IC50 is the concentration that inhibits the measured activity by half. `C=CC(=O)N1CCc2nc(-c3nc(-c4cnc5c(c4)CNC(=O)C5)c4ccsc4c3-c3c(F)cc(F)cc3OC(C)C)sc2C1` (single isomer, unassigned) [Compound 588]: the IC50 in assay [1] (Compounds 10-999) was less than 100 nM. In addition, in assay [2] (setting [3]), the “% of modification” value is given as “A (percent of modification of PIK3CA protein ≥75%)”.

As to `C=CC(=O)N1CCc2nc(-c3nc(-c4ccc5c(c4)CCNC5)c4c(F)csc4c3-c3ccc(F)cc3OC)sc2C1` [Compound 274, 1-[2-[3-fluoro-7-(4-fluoro-2-methoxy-phenyl)-4-(1,2,3,4-tetrahydroisoquinolin-6-yl)thieno[3,2-c]pyridin-6-yl]-6,7-dihydro-4H-thiazolo[5,4-c]pyridin-5-yl]prop-2-en-1-one], the IC50 in assay [1] (setting [4]) was 100 to 1000 nM. The “% of modification” value in assay [2] (setting [3]) is “A (percent of modification of PIK3CA protein ≥75%)”.

Regarding `C=CC(=O)N1CCn2nc(-c3nc(-c4ccc5c(cnn5C)c4)c4ccsc4c3-c3c(F)cc(F)cc3OCCOC)cc2[C@H]1C` [Compound 1131], the concentration for half-maximal inhibition (IC50) in assay [1] (Compounds 1000-1279) is more than 1000 nM. The “% of modification” value in assay [2] (setting [5]) was “D (percent of modification <25%)”.

Consider `C=CC(=O)N1CCn2nc(-c3nc(-c4cnc(C)nc4)c4ccsc4c3-c3c(F)cc(F)cc3OCC(C)O)cc2C1C` (stereo not drawn) [Compound 771], for which, in assay [1] (Compounds 10-999), the IC50 was less than 100 nM. For the same compound, in assay [2] (setting [3]), the “% of modification” value is reported as “A (percent of modification of PIK3CA protein ≥75%)”.

On to `C=CC(=O)N1CC(n2cc(-c3nc(-c4ccc5c(c4)CS(=O)(=O)C5)c4ccsc4c3-c3ccc(F)cc3OC)cn2)C1` [Compound 95], for which the half-maximal inhibitory concentration (IC50) in assay [1] (Compounds 10-999) is less than 100 nM. The “% of modification” value in assay [2] (setting [3]) is given as “A (percent of modification of PIK3CA protein ≥75%)”.

`C=CC(=O)N1Cc2cc(-c3nc(-c4ccc5c(c4)CCN(C)C5)c4ccsc4c3-c3c(F)cc(F)cc3OC[C@@H](C)O)nn2C[C@H]1C` [Compound 606]: in assay [1] (Compounds 10-999), the IC50 fell in the range of 1000 to 3000 nM. Also, the “% of modification” value in assay [2] (setting [3]) is given as “D (percent of modification <25%)”.

As to `C=CC(=O)N1CCc2cc(-c3nc(-c4cnc5c(c4)CNC(=O)C5)c4ccsc4c3-c3c(F)cc(F)cc3OC(C)C)nn2CC1` [Compound 568], the IC50 in assay [1] (Compounds 10-999) is less than 100 nM. Also, in assay [2] (setting [3]), the “% of modification” value is “A (percent of modification of PIK3CA protein ≥75%)”.

In the case of `C=CC(=O)N1CCn2nc(-c3nc(-c4ccc(C5(C(=O)NC6CN(C)C6)CC5)cc4)c4ccsc4c3-c3c(F)cc(F)cc3OCCOC)cc2C1C` (stereo not drawn) [Compound 1157], in assay [1] (Compounds 1000-1279), the IC50 lay within 100 to 1000 nM. Also, the “% of modification” value in assay [2] (setting [5]) is reported as “A (percent of modification of PIK3CA protein ≥75%)”.

For the compound `C=CC(=O)N1CCn2nc(-c3nc(-c4ccc(N(C)C)nc4)c4ccsc4c3-c3c(F)cc(F)cc3OCCO)cc2[C@@H]1C` [Compound 957, 1-((S)-2-((S)-7-(2,4-difluoro-6-(2-hydroxyethoxy)phenyl)-4-(6-(dimethylamino)pyridin-3-yl)thieno[3,2-c]pyridin-6-yl)-4-methyl-6,7-dihydropyrazolo[1,5-a]pyrazin-5(4H)-yl)prop-2-en-1-one], the half-inhibitory concentration (IC50) in assay [1] (setting [4]) is less than 100 nM. Further, the “% of modification” value in assay [2] (setting [5]) is listed as “A (percent of modification of PIK3CA protein ≥75%)”.

On to `C=CC(=O)N1CCn2nc(-c3nc(-c4ccc(=O)n(C)c4)c4ccsc4c3-c3ccc(F)cc3OC(C)C)cc2C1` [Compound 201], for which, in assay [1] (Compounds 10-999), the IC50 was less than 100 nM. In addition, the “% of modification” value in assay [2] (setting [3]) is listed as “A (percent of modification of PIK3CA protein ≥75%)”.

For `C=CC(=O)N1Cc2cc(-c3nc(-c4ccc5c(c4)CCN(C)C5)c4ccsc4c3-c3c(F)cc(F)cc3OCCOC)nn2[C@@H](C)C1` [Compound 560], the half-maximal inhibitory concentration (IC50) in assay [1] (Compounds 10-999) was less than 100 nM. Further, the “% of modification” value in assay [2] (setting [3]) is “A (percent of modification of PIK3CA protein ≥75%)”.

Take `C=CC(=O)N1CCn2nc(-c3nc(-c4ccc(=O)n(CC(F)F)c4)c4ccsc4c3-c3c(F)cc(F)cc3OCCO)cc2C1C` (stereo not drawn) [Compound 981]: the IC50 in assay [1] (Compounds 10-999) is less than 100 nM. Further, in assay [2] (setting [5]), the “% of modification” value is recorded as “A (percent of modification of PIK3CA protein ≥75%)”.

`C=CC(=O)N1CCn2nc(-c3nc(-c4cnn(C)c(=O)c4)c4ccsc4c3-c3c(F)cc(F)cc3OCCOC)cc2C1C` (stereo not drawn) [Compound 984]: in assay [1] (Compounds 10-999), the concentration for half-maximal inhibition (IC50) was less than 100 nM. Moreover, the “% of modification” value in assay [2] (setting [5]) is “A (percent of modification of PIK3CA protein ≥75%)”.

Regarding `C=CC(=O)N1CCn2nc(-c3nc(-c4ccc5c(c4)CCN(C)CC5)c4ccsc4c3-c3c(F)cc(F)cc3OCCOC)cc2C1C` (stereo not drawn) [Compound 994], the IC50 in assay [1] (Compounds 10-999) was in the range of 100 to 1000 nM. Further, the “% of modification” value in assay [2] (setting [5]) is reported as “D (percent of modification <25%)”.

In the case of `C=CC(=O)N1CCc2nc(-c3nc(-c4ccc(N)nc4)c4ccsc4c3-c3ccc(F)cc3OCCOC)sc2C1` [Compound 142], the IC50 in assay [1] (Compounds 10-999) was less than 100 nM. In addition, in assay [2] (setting [3]), the “% of modification” value was “A (percent of modification of PIK3CA protein ≥75%)”.

On to `C=CC(=O)N1CC(n2cc(-c3nc(-c4ccc5c(c4)CCNC5)c4ccsc4c3-c3ccc(F)cc3F)cn2)C1` [Compound 108], for which the IC50 in assay [1] (Compounds 10-999) is 100 to 1000 nM. Besides, the “% of modification” value in assay [2] (setting [3]) is “A (percent of modification of PIK3CA protein ≥75%)”.

For `C=CC(=O)N1CCc2nc(-c3nc(C4CCN(C(C)C)CC4)c4ccsc4c3-c3ccc(F)cc3OCCOC)sc2C1` [Compound 143, 1-(2-(7-(4-fluoro-2-(2-methoxyethoxy)phenyl)-4-(1-isopropylpiperidin-4-yl)thieno[3,2-c]pyridin-6-yl)-6,7-dihydrothiazolo[5,4-c]pyridin-5(4H)-yl)prop-2-en-1-one], the IC50 in assay [1] (setting [4]) is 100 to 1000 nM. In addition, in assay [2] (setting [3]), the “% of modification” value is on record as “A (percent of modification of PIK3CA protein ≥75%)”.

For `C=CC(=O)N1CCn2nc(-c3nc(-c4cnc5c(cnn5C)c4)c4ccsc4c3-c3c(F)cc(F)cc3OCCO)cc2C1C` (stereo not drawn) [Compound 877], the IC50 in assay [1] (Compounds 10-999) was less than 100 nM. Also, the “% of modification” value in assay [2] (setting [5]) is “A (percent of modification of PIK3CA protein ≥75%)”.

For the compound `C=CC(=O)N1CCn2cc(-c3nc(-c4ccc(=O)n(C)c4)c4ccsc4c3-c3ccc(F)cc3OC(C)C)nc2C1` [Compound 272], the IC50 in assay [1] (Compounds 10-999) was less than 100 nM. Further, the “% of modification” value in assay [2] (setting [3]) is “A (percent of modification of PIK3CA protein ≥75%)”.

Regarding `C=CC(=O)N1CCc2ncc(-c3nc(-c4cnc(N)nc4)c4ccsc4c3-c3c(F)cc(F)cc3OC(C)C)cc2C1` [Compound 372], in assay [1] (Compounds 10-999), the IC50 was less than 100 nM. The “% of modification” value in assay [2] (setting [3]) was “A (percent of modification of PIK3CA protein ≥75%)”.

`C=CC(=O)N1CCc2cc(-c3nc(-c4ccc5cn(C)nc5c4)c4ccsc4c3-c3c(F)cc(F)cc3OCCO)nn2CC1` [Compound 1210]: the IC50 in assay [1] (Compounds 1000-1279) was less than 100 nM. Further, in assay [2] (setting [5]), the “% of modification” value was “A (percent of modification of PIK3CA protein ≥75%)”.

With `C=CC(=O)N1CCc2ccc(-c3nc(-c4cnc5c(c4)CNC(=O)C5)c4ccsc4c3-c3c(F)cc(F)cc3OCCOC)cc2C1` [Compound 580, (S)-3-(6-(2-acryloyl-1,2,3,4-tetrahydroisoquinolin-7-yl)-7-(2,4-difluoro-6-(2-methoxyethoxy)phenyl)thieno[3,2-c]pyridin-4-yl)-5,8-dihydro-1,6-naphthyridin-7(6H)-one], in assay [1] (Compounds 10-999), the IC50 was less than 100 nM. For the same compound, the “% of modification” value in assay [2] (setting [3]) is “A (percent of modification of PIK3CA protein ≥75%)”.

In the case of `C=CC(=O)N1CCc2ccc(-c3nc(-c4ccc5c(c4)CNC5=O)c4ccsc4c3-c3c(F)cc(F)cc3OCCOC)cc2C1` (single isomer, unassigned) [Compound 886], the IC50 in assay [1] (Compounds 10-999) is more than 3000 nM. Moreover, the “% of modification” value in assay [2] (setting [5]) is “D (percent of modification <25%)”.

On to `C=CC(=O)N1CCc2nc(-c3nc(-c4ccc5c(c4)CCNC5)c4ccsc4c3-c3ccc(F)cc3OCCO)sc2C1` [Compound 130], for which, in assay [1] (Compounds 10-999), the half-maximal inhibitory concentration (IC50) is less than 100 nM. Besides, the “% of modification” value in assay [2] (setting [3]) is recorded as “A (percent of modification of PIK3CA protein ≥75%)”.

The values are drawn from patent US20250230138A1, “COMPOUNDS HAVING A T-STRUCTURE FORMED BY AT LEAST FOUR CYCLES FOR USE IN THE TREATMENT OF CANCER AND OTHER INDICATIONS” (TheRas, Inc., priority 2022, published 2025).
